The source of these data is US20260297060A1, “COMPOUNDS FOR THE DEGRADATION OF MUTANT BRAF” (C4 THERAPEUTICS, INC., priority 2023, published 2026).

Where two headings read alike, the source gives them in different places.

This data set can be described thus: Example 7 pharmacokinetics assay for PKPD study (plasma, tumor, liver). In kind it is in vivo, BALB/c nude mice. The note with it: mouse, po, 100 mg/kg, p.o., single dose. As for the experimental part: For the PK and PD study, agents were administered to BALB/c nude mice bearing A375 human melanoma xenografts tumors. Dabrafenib, Compound 141, Compound 118, Compound 156, and Compound 180 were dosed p.o. once on day 1. Known BRAF inhibitor Dabrafenib was used as a positive control. Dabrafenib was dosed at 100 mg/kg. Compound 141, Compound 118, Compound 156, and Compound 180 were dosed at 10 mg/kg.
The plasma samples were collected at predetermined time points for PK analysis. The mice were euthanized at predetermined time points post the treatment. The blood samples were collected into the 1.5 mL Eppendorf tubes containing 15 μL of 0.5 M EDTA-K2. And then the anticoagulant blood samples were centrifuged at 2,500 g at 4° C. for 15 minutes. The plasma samples were separated into 2 aliquots. The 1st was used for PK analysis, and the 2nd served as backup. The samples were stored at −80° C. before bioanalysis.
The tumor samples were collected at predetermined time points for PK and WB analysis. The tumor was dissected out and split into 3 parts. The 1st part was used for PK analysis, the 2nd part was used for WB analysis and the last one served as backup for study. The samples were transferred into pre-labeled tubes and quickly froze in liquid nitrogen within 2 minutes after dissection. The samples were stored at −80° C. before bioanalysis.
Liver samples were collected at predetermined time points for PK analysis. The left lobe of the liver was dissected out and split into 2 parts. The 1st part was used for PK analysis and the 2nd part served as the backup for the study. The samples were transferred into pre-labeled tubes and quickly froze in liquid nitrogen within 2 minutes after dissection. The samples were stored at −80° C. before bioanalysis.
The harvested plasma and liver samples were processed for pharmacokinetics analysis by LC-MS/MS with a concentration range of 0.500-1000 ng/mL for Dabrafenib, Compound 118 and Compound 180 in plasma, 0.100~200 ng/ml for Dabrafenib in Liver and tumor homogenate, 50.0~50,000 ng/mL for Compound 141 in plasma and Liver homogenate, 1.00-1000 ng/ml for Compound 141 in tumor homogenate, 2.00~2000 ng/mL for Compound 118 and Compound 180 in Liver and 0.200~200 ng/ml in tumor homogenate, 1.00~2000 ng/mL for Compound 156 in plasma, 0.500-1000 ng/ml in liver and 0.500-1,000 ng/ml in tumor homogenate.

Setting [1] is: liver, read-out: Concentration in Liver (mean ± SEM).
Setting [2] is: plasma, read-out: Concentration in Plasma (mean ± SEM).
Setting [3] is: tumor, read-out: Concentration in Tumor (mean ± SEM).

For the molecule `CC(C)(C)c1nc(-c2cccc(NS(=O)(=O)c3c(F)cccc3F)c2F)c(-c2ccnc(N)n2)s1` [Dabrafenib, dabrafenib, reference compound], under setting [1], the concentration at 6 h came to 2450 ± 737 ng/g and the concentration at 12 h amounted to 1110 ± 453 ng/g. Besides, under setting [2], the concentration at 1 h was found to be 7370 ± 865 ng/mL, the concentration at 6 h came to 1140 ± 390 ng/mL, the concentration at 12 h amounted to 336 ± 137 ng/mL and the concentration at 24 h was found to be 3.88 ± 2.43 ng/mL. Moreover, under setting [3], the concentration at 1 h turned out to be 9520 ± 2050 ng/g, the concentration at 6 h is 702 ± 341 ng/g, the concentration at 12 h amounted to 242 ± 96 ng/g and the concentration at 24 h amounted to 5.53 ± 0.951 ng/g.
